US5486532A, “Benzospiroalkenes” (Adir et Compagnie, priority 1993, dated 1996)
Structures can show the parent of a compound that is named as a salt. Where two headings read alike, the source gives them in different places.

Key:
[1] = system: loss of the righting reflex in rats; assay: Test of loss of the righting reflex in rats, induction (agonistic effect); assay type: in vivo, male Wistar rats; conditions: for ED50: Rattus norvegicus, sc, 0.5 h, read-out: Induction of the loss of righting reflex ED50; for induction of a loss of the reorienting reflex (in words): rats
Description: (§1) Animals and environment The animals used are male Wistar rats (IFFA CREDO). They weigh between 200 and 250 g at the time of the experiment. The rats live in an animal house, in cages, four to a cage, with free access to food and drinking water, for one week before being studied. 24 hours before the experiment, the rats are deprived of food. The rats are transferred into the laboratory a few hours before the experiment. The animal house and the laboratory are climatically controlled at a temperature of 21 1° C. and a hygrometry of 55 5%. The lighting cycle is 12 h/12 h with the light switched on from 7.0 a.m. to 7.0 p.m. The rats are only experimented on once.
(§2) The compounds are injected subcutaneously into the rats which are placed in individual cages. 30 minutes after the injection the effect of these products on the fighting reflex is observed and a score is attributed. Immediately after, the rats receive an intraperitoneal injection of xylazine at a dose of 40 mg/kg. 30 minutes after the injection of xylazine (=60 minutes after the injection of the compounds to be tested), a new righting reflex score is attributed. In order to evaluate the righting reflex, the rats are placed gently on their backs and then released. A score of 0 is attributed to an immediate and complete righting, a score of 1 to a righting without recovery of a normal position, a score of 2 to a righting attempt but in which the rat remains stretched out on its back and a score of 3 to a complete loss of the reorienting reflex.
(§3) In order to evaluate the effect of the compounds tested on the loss of the righting reflex, a score of 1 or more is considered as an agonistic effect. The percentage of animals which have a score of 1 or more is calculated per dose, as is the ED50 (=dose at which 50% of the animals show an agonistic effect).
(§4) The products are dissolved in distilled water, or distilled water with a few drops of lactic acid in the case of solubilization difficulties. The pH of the solutions is then brought to 5 using sodium hydroxide solution. All the products are administered in a volume of 10 ml/kg.

[2] = system: loss of righting reflex induced by xylazine in rats; assay: Antagonism of the loss of righting reflex induced by xylazine in rats; assay type: in vivo, male Wistar rats; conditions: Rattus norvegicus, sc, 1 h, read-out: Antagonism of the loss of righting reflex induced by xylazine ED50
Description: as §1, §2
as §3, with “fighting reflex induced by xylazine,” for “righting reflex,”, “2” for “1”, “less” for “more”, “antagonistic” for “agonistic”, “effect). The ED50 are calculated according to Litchfield and Wilcoxon.” for “effect).”
as §4

[3] = system: dog femoral arteries; assay: Contraction of isolated dog femoral arteries; conditions: Canis lupus familiaris
Description: (§5) The technique used is based on that described by Fowler et al. (J. Pharmacol. Exp. Ther., 229, 712-718, 1984). Male or female mongrel dogs of approximately 15-25 kg were used as organ sources. The animals are anesthetized with pentobarbital (30 mg/kg intravenously). The legs are incized and the blood vessels removed. They are placed in Krebs-Ringer liquid (118 mM NaCl; 25 mM NaHCO3; 10 mM Glucose; 4.7 mM KCl; 1.25 mM CaCl2; 1.19 mM MgSO4; 1.14 mM KH2 PO4) at room temperature and under a sparge of carbogen (95% O2, 5% CO2). These blood vessels are then carefully freed of their fat and then cut into rings 2 mm wide and mounted under a base tension of 4 g (femoral arteries) or 1 g (saphena veins) in tanks thermostated at 37° C. containing Krebs-Ringer liquid and constantly sparged with carbogen. A lower hook constitutes the fixed point, whereas the upper hook is connected to an isometric force sensor. The variations in tension are digitized, stored on disk and processed by an information technology system. After mounting, the organs are left to rest for 90 minutes, with rinses being carried out every 30 min. After readjustment of the base tension, a contraction is induced by a single dose of KCl (100 mM). After stabilization, washing and returning to the base line, a contraction is provoqued by a single dose of phenylephrine (submaximal concentration) in order to regulate the following contractions. After washing and returning to the baseline, an effect/concentration curve is produced by addition of cumulative doses of agonist (the space between the doses is a semi-log). This experiment makes it possible to calculate the 50% effective concentration (EC50) in the following way: the tension values are first of all converted to percentages relative to the maximum effect induced by 100 mM of KCl. This EC50 is determined by non-linear regression by the SIMPLEX method (M. S. Caceci, Byte, 340-362, 1984), calculated according to the mass action law model of L. Michaelis and M. L. Menten (Biochem. Zeitschrift, 49, 333-369, 1913).
(§6) E=(Emax*C^n)(EC^n +C^n) with E=effect; Emax=maximum effect; C=concentration; EC=EC50; n=Hill number
(§7) The products of the invention contract dog arteries and veins. The maximum for these contractions approaches that obtained with KCl.

[4] = system: saphena veins; assay: Contraction of isolated dog saphena veins; conditions: Canis lupus familiaris
Description: as §5, §6, §7

[5] = system: alpha1-adrenergic; assay: Amyelated rats, alpha1-adrenergic component (C20 ratio with prazosin); assay type: in vivo, Sprague Dawley rats; conditions: pretreated with prazosin
Source text: (§8) Male Sprague Dawley rats (300-400 g) are anesthetized with ether. The trachea is cannulated, the spinal column is destroyed using a stainless-steel rod and the animal is 1. 5 immediately placed under artificial respiration. The vagus nerves are dissected. The carotid arteries are ligatured and a catheter is placed in one and serves to record the arterial pressure. Three other catheters are placed in the jugular veins and in the vein of the penis and serve for the injections. The temperature of the animals is maintained at 36° C. The animal is pretreated by an injection of tertatolol […]. The animal is also pretreated 10 minutes later with prazosin ([…]) or yohimbine (1 mg/kg) when it is desired to determine the alpha1 - or alpha2-adrenergic properties of the product. Ten minutes later, increasing cumulative doses of product are injected every 20 seconds. The variations in arterial pressure are detected using a Statham P23XL pressure cell and are recorded. The pressure values are expressed in mmHg. This experiment makes it possible to calculate the concentration which increases the pressure by 20 mmHg (C20) by non-linear regression according to the mass action law model of Michaelis and Menten as described above. The maximum effect obtained is subsequently convened to a percentage relative to the maximum effect induced by phenylephrine. The alpha1 - or alpha2-adrenergic components of the product are evaluated using the C20 ratio obtained in the presence of prazosin or yohimbine on the values obtained in the absence of these antagonists. In amyelated rats, the products of the invention produce hypertensions which are sensitive to prazosin and to yohimbine.

[6] = system: alpha2-adrenergic; assay: Amyelated rats, alpha2-adrenergic component (C20 ratio with yohimbine); assay type: in vivo, Sprague Dawley rats; conditions: pretreated with yohimbine (1 mg/kg)
Source text: as §8

[7] = system: arterial pressure in amyelated rats; assay: In vivo study in amyelated rats, arterial pressure; design: species or system Sprague Dawley rats; conditions: Rattus norvegicus, iv, tertatolol pretreated, no prazosin or yohimbine, read-out: C20 Control (concentration which increases the pressure by 20 mmHg)
Source text: as §8

[8] = system: synthetic activity of noradrenaline in rat hippocampus; assay: Effect of α2-adrenergic ligands on the synthetic activity of noradrenaline in rat hippocampus (L-DOPA accumulation); assay type: in vivo, male Wistar rats; conditions: 60 minutes, n = 4
Description: 200-220 g male Wistar rats Iffa Credo, Illskischen, France) are individually installed in cages with free access to food and drinking water. The laboratory temperature is 21 1° C. and the percent humidity is 60 5%. The day/night cycle is 12 hours (light switched on in the morning at 7.30).
The effects of the molecules on the rate of regeneration of noradrenaline is determined 60 minutes after their administration via the subcutaneous route. […] The animals are then decapitated, their brain is removed and the hippocampus is dissected. The hippocampus is subsequently homogenized in 500 1 of 0.1M HClO4 containing 0.5% of Na2 S2 O5 and 0.5% of disodium EDTA and centrifuged at 15000 g for 15 minutes at 4° C. In order to measure the amounts of L-dihydroxyphenylalanine (L-DOPA), the precursor of noradrenaline, present, the supernatants are diluted 20 times in the chromatography mobile phase and 100 1 are analyzed by high performance liquid chromatography with electrochemical detection (Waters M460 detector, potential of the working electrode:850 mV). The column (Hypersil ODS 5 m, C18, 150 4.6 mm, Spectra Physics) is thermostatted at 25° C. […] The flow rate is 1 ml/min. The amounts of L-DOPA are determined relative to an external calibration and are compared with the amount of protein present in the hippocampi. The proteins are quantified according to the method of Smith et at. […] The average amount of L-DOPA analyzed in the animals treated by the solvent is considered as the control value (100%). The amounts analyzed in the animals treated by the molecules are then expressed as a percentage relative to this control value.
Statistics The data obtained for the control animals and the treated animals are compared with a variance analysis (ANOVA), followed by a Dunnett test. The significance limit is set at p<0.05. The data are expressed as a mean standard deviation.
Compounds The injection are made subcutaneously in a volume of 1.0 ml/kg. The substances are dissolved in sterile water with, if necessary, a few drops of lactic acid and then readjusted to a pH which is as close as possible to neutrality with sodium hydroxide. […] The doses are expressed relative to their weight of free base.

[9] = s.c., 30 minutes after injection, score of 1 or more
[10] = s.c., 60 minutes after injection, xylazine 40 mg/kg i.p., score of 2 or less
[11] = 30 minutes after xylazine 40 mg/kg i.p., distilled water pretreatment, N=10

SMILES: NC1=NC2(CCc3cccc(Cl)c3C2)CO1 (single isomer, unassigned) [Example 13, Spiro[(1-oxa-2-amino-3-azacyclopent-2-ene)-4:2'-(8'-chloro-1',2', 3',4'-tetrahydronaphthalene)]hydrochloride, βisomer]
- ED50 [1, 9]: 0.15 mg/kg
- induction of a loss of the reorienting reflex (in words) [1]: behave as agonists by inducing a loss of the reorienting reflex
- ED50 [2, 10]: > 0.63 mg/kg

SMILES: COc1cccc2c1CC1(CC2)CNC=N1 (stereo not shown) [Example 3, Spiro[(1,3-diazacyclopent-1-ene)-5:2'-(8'-methoxy-1',2',3', 4'-tetrahydronaphthalene)]fumarate]
- EC50 ([3]; dog femoral artery rings, cumulative doses): 3 µM
- Emax ([3]; maximum contraction relative to 100 mM KCl, dog femoral artery, read-out: ARTERY Max): 94%
- EC50 ([4]; dog saphena vein rings, cumulative doses): 0.4 µM
- Emax ([4]; maximum contraction relative to 100 mM KCl, dog saphena vein, read-out: VEIN Max): 100%

SMILES: Oc1cccc2c1CC1(CC2)CNC=N1 (stereo not shown) [Example 5, Spiro[(1,3-diazacyclopent-1-ene)-5:2'-(8'-hydroxy-1',2',3', 4'-tetrahydronaphthalene)]fumarate]
- Ratio treated C20 / control C20, Prazosin [5]: 0.9
- Ratio treated C20 / control C20, Yohimbine [6]: 12.0
- ED (20 mmHg) [7]: 0.0048 mg/kg

SMILES: NC1=NC2(CCc3cccc(Cl)c3C2)CO1 (stereo not shown) [Example 9, Spiro[(1-oxa-2-amino-3-azacyclopent-2-ene)-4:2'-(8'-chloro-1', 2',3',4'-tetrahydronaphthalene)]hydrochloride]
- ED50 [1, 9]: 0.17 mg/kg
- induction of a loss of the reorienting reflex (in words) [1]: behave as agonists by inducing a loss of the reorienting reflex
- ED50 [2, 10]: > 0.63 mg/kg
- Accumulation of L-DOPA ([8]; dose 0.01 mg/kg s.c.): 51 ± 7 Control percentages
- Accumulation of L-DOPA ([8]; dose 0.04 mg/kg s.c.): 50 ± 7 Control percentages
- Accumulation of L-DOPA ([8]; dose 0.16 mg/kg s.c.): 44 ± 2 Control percentages
- Accumulation of L-DOPA ([8]; dose 0.63 mg/kg s.c.): 34 ± 2 Control percentages

SMILES: Cc1ccc2c(c1C)CC1(CC2)COC(N)=N1 (stereo not shown) [Example 11, Spiro[(1-oxa-2-amino-3-azacyciopent-2-ene)-4:2'-(7-8'-dimethyl-1', 2',3',4'-tetrahydronaphthalene)]hydrochloride]
- ED50 [1, 9]: 1.14 mg/kg
- induction of a loss of the reorienting reflex (in words) [1]: behave as agonists by inducing a loss of the reorienting reflex
- ED50 [2, 10]: > 2.5 mg/kg

SMILES: c1ccc2c(c1)OCC(C1=NCCN1)O2 (stereo not shown) [IDAZOXAN, idazoxan]
- ED50 [1, 9]: > 10 mg/kg
- induction of a loss of the reorienting reflex (in words) [1]: inactiv
- ED50 [2, 10]: 0.24 mg/kg

SMILES: Brc1c(NC2=NCCN2)ccc2nccnc12 [UK 14,304, reference compound]
- ED50 [1]: 0.24 mg/kg
- induction of a loss of the reorienting reflex (in words) [1]: behave as agonists by inducing a loss of the reorienting reflex
- ED50 [2]: > 10 mg/kg
- Accumulation of L-DOPA ([8]; dose 0.01 mg/kg s.c.): 98 ± 13 Control percentages
- Accumulation of L-DOPA ([8]; dose 0.04 mg/kg s.c.): 70 ± 2 Control percentages
- Accumulation of L-DOPA ([8]; dose 0.16 mg/kg s.c.): 40 ± 3 Control percentages
- Accumulation of L-DOPA ([8]; dose 0.63 mg/kg s.c.): 48 ± 7 Control percentages

SMILES: Cc1cccc(C)c1N=C1NCCCS1 [XYLAZINE, xylazine]
- control rats that had lost the righting reflex (in words) [1, 11]: all the control rats (N=10) had lost the fighting reflex
- righting reflex score, mean±SD [1, 11]: 3±0
- ED50 [1]: 6.1 mg/kg
- induction of a loss of the reorienting reflex (in words) [1]: behave as agonists by inducing a loss of the reorienting reflex
